Reference: paper PMC11854273, “Screening of the Antimelanoma Activity of Monoterpenes—In Vitro Experiments on Four Human Melanoma Lines” (Current Issues in Molecular Biology, 2025)
Read-outs that look alike come from different tables or passages of the source.

Tests used:
[1] = test system: malignant melanoma cell lines A375, SK-MEL28, FM55P, FM55M2; assay: LDH cytotoxicity assay, melanoma lines; details: 72 h
Experimental: Four malignant melanoma cell lines, FM55P, FM55M2 (ECACC, Public Health England, Porton Down, UK), A375 and SK-MEL28 (ATCC, Manassas, VA, USA) were used. The immortalized human normal keratinocyte (HaCaT; ATCC, Manassas, VA, USA) served as a reference cell line. Of note, the A375 cell line is the original and not a CRISPR-modified version of the cell line, and all the tested cell lines in this study have the BRAF V600E mutation. The experimental cell culture conditions were as follows: 37 °C in a humidified atmosphere of 95% air and 5% CO2. The culture media used were as follows: for A375—DMEM high glucose; for SK-MEL28—EMEM; and for FM55P and FM55M2—RPMI1640 (All from Sigma-Aldrich, St. Louis, MO, USA). Previous publications described in more detail the growth conditions of these cell line cultures.
Specified densities (as above) of all the studied melanoma and normal human cell line were plated on microtiter plates (NEST). […] The LDH test was carried out after 72 h of incubation with the tested terpenes according to the manufacturer’s instructions. A more detailed description of the steps of the LDH test was previously provided.
GraphPad Prism (version 8.0, San Diego, CA, USA) was used for statistical analysis of the data (from the MTT and LDH tests). The analyses were performed with a one-way ANOVA test followed by Tukey’s post hoc test. Data were presented as means ± standard errors (SEMs). The median inhibitory concentration (IC50) values for the tested terpenes were calculated automatically with a computer-assisted log-probit method using an MS Excel spreadsheet, as previously described.

A549 line = test system: A549 line; parameters: method as in PMID 31202132; details: cited from earlier work
[2] = test system: malignant melanoma cell lines A375, SK-MEL28, FM55P, FM55M2; assay: MTT cell viability assay, four melanoma lines taken together; assay type: cell-based, human; details: for IC50: read-out: IC50 range depending on the melanoma cell line; for effect on melanoma cell viability (in words): four melanoma lines
Experimental: (§1) All tested cell lines—the HaCaT cell line model of human keratinocyte cells (density: 1 × 10^4 cells/mL) and four human malignant melanoma lines (density: 2–3 × 10^4 cells/mL, depending on the cell line—were plated on microtiter plates (NEST Biotechnology, Wuxi, China). After a day (24 h) of incubation, the medium was replaced with a fresh medium to which increasing concentrations of the tested substances were added. The experimental steps of the MTT assay were previously described. Each experiment in the MTT assay was performed in triplicate to ensure the repeatability and validity of the results.
(§2) Data were presented as means ± standard errors (SEMs).

[3] = test system: mouse melanoma B16(F10) cells; details: B16F10; cited from earlier work
[4] = test system: SK-MEL28 malignant melanoma cell line; assay: MTT cell viability assay, SK-MEL28; assay type: cell-based; details: Homo sapiens
Experimental: as §1, §2

[5] = test system: normal human keratinocytes HaCaT; assay: MTT cell viability assay, normal keratinocytes; assay type: cell-based; details: for IC50: Homo sapiens
Experimental: as §1, §2

[6] = test system: FM55M2 malignant melanoma cell line; assay: MTT cell viability assay, FM55M2; assay type: cell-based; details: Homo sapiens, 72 h
Experimental: as §1, §2

[7] = test system: A375 malignant melanoma cell line; assay: MTT cell viability assay, A375; assay type: cell-based; details: Homo sapiens
Experimental: as §1, §2

[8] = test system: FM55P malignant melanoma cell line; assay: MTT cell viability assay, FM55P; assay type: cell-based; details: Homo sapiens, 72 h
Experimental: as §1, §2

[9] = test system: HT29 colon cancer cell line; parameters: method as in PMID 31323842; details: cited from earlier work
[10] = test system: MDA MB-231 breast cancer cell line; parameters: method as in PMID 32526880, PMID 30733560; details: cited from earlier work
[11] = test system: A549 lung cancer cell line; parameters: method as in PMID 32420353; details: cited from earlier work
[12] = test system: 4T1 breast cancer cell line; parameters: method as in PMID 32526880, PMID 30733560; details: cited from earlier work
[13] = test system: SW620 colon cancer cell line; parameters: method as in PMID 31323842; details: cited from earlier work
[14] = test system: H1299 lung cancer cell line; parameters: method as in PMID 32420353; details: cited from earlier work
MDA-MB-231 cells = test system: MDA-MB-231 cells; parameters: method as in PMID 32772589; details: cited from earlier work
MCF-7 breast cancer line = test system: MCF-7 breast cancer line; parameters: method as in PMID 32772589; details: cited from earlier work
[15] = test system: Ishikawa cell line, of endometrial cancer; details: 24 h of incubation; cited from earlier work
A431 skin cancer line = details: A431, MTT assay; cited from earlier work
[16] = test system: colo-205 colon cancer cell line; details: cited from earlier work
[17] = test system: liver cancer cell lines and mouse melanoma B16-F10; parameters: method as in PMID 23453306; details: authors' conversion of the μg/mL values; cited from earlier work
[18] = test system: human cervical cancer, human lung cancer, monkey kidney cells and mouse macrophages; parameters: method as in doi:10.1590/S0044-59672007000200015; details: 200 µg/mL (≈1.5 mM); cited from earlier work
[19] = test system: B16-F10 mouse melanoma cell lines; parameters: method as in PMID 22352891; details: B16-F10, MTT test, cited from earlier work
[20] = A549, authors' conversion, read-out: IC50
[21] = range over the four human melanoma lines, MTT, 72 h
[22] = SK-MEL-28, SK-MEL28, MTT assay, 72 h, mean ± SEM, read-out: IC50
[23] = HaCaT, MTT assay, 72 h, mean ± SEM, read-out: IC50
[24] = FM55M2, MTT assay, mean ± SEM, read-out: IC50
[25] = A-375, A375, MTT assay, 72 h, mean ± SEM, read-out: IC50
[26] = FM55P, MTT assay, mean ± SEM, read-out: IC50

Row | IC50 [2, 21] [µM] | IC50 [4, 22] [µM] | IC50 [6, 24] [µM] | IC50 [7, 25] [µM] | IC50 [8, 26] [µM] | IC50 range depending on the melanoma cell line [2, 21] | SMILES | concentration with statistically significant cytotoxicity towards melanoma cells [1] | effect on melanoma cell viability (in words) ([2]; MTT, 72 h) | effect on normal keratinocyte cells (in words) ([5]; HaCaT, MTT) | IC50 [5, 23] [µM] | concentration significantly affecting viability of normal keratinocytes ([5]; HaCaT, MTT, 72 h) [µM] | further results
1 | 2170 to 4810 | 4810 ± 290 | 2170 ± 300 | 3630 ± 560 | 2450 ± 380 |  | CC(C)=CCCC(C)CCO (stereo not drawn) [Citronellol, citronellol] | above 4.2 mM | showed a significant anti-viability effect |  | 6270 ± 1150 | 1200 to 6000 | IC50 (MDA-MB-231 cells): 35 µM; IC50 (MCF-7 breast cancer line): 80 µM
2 | 270 to 440 | 440 ± 30 | 420 ± 20 | 270 ± 30 | 330 ± 20 |  | CC(C)=CCC/C(C)=C/CO [Geraniol, geraniol] |  | showed a significant anti-viability effect |  | > 650 |  | IC50 [15]: 260 µM; IC50 (A431 skin cancer line): 98 µM; IC50 [16]: 20 µM; IC50 [3]: 150 ± 19 µM
3 |  |  |  |  |  | could not be determined | CC(C)=CCC/C(C)=C\CO [Nerol, nerol] |  | Its effect was not significant |  |  |  | concentration significantly affecting viability of melanoma cell lines ([2]; MTT, 72 h): 0.13 to 0.65 mM; concentration significantly affecting viability of normal keratinocytes ([5]; human, 72 h): 650 µM
4 |  |  |  |  |  | could not be determined | C=C(C)CCC[C@H](C)CCO [Rhodinol, rhodinol] |  | did not show any significant activity |  |  | ≥ 4800 | concentration significantly affecting viability of melanoma cell lines ([2]; MTT, 72 h): ≥ 4.8 mM

Second part, the compound before the results:

Row | SMILES | IC50 [2, 21] [µM] | IC50 [4, 22] [µM] | IC50 [6, 24] [µM] | IC50 [7, 25] [µM] | IC50 [8, 26] [µM] | IC50 range depending on the melanoma cell line [2, 21] | concentration with statistically significant cytotoxicity towards melanoma cells [1] | effect on melanoma cell viability (in words) ([2]; MTT, 72 h) | effect on normal keratinocyte cells (in words) ([5]; HaCaT, MTT) | IC50 [5, 23] [µM] | concentration significantly affecting viability of normal keratinocytes ([5]; HaCaT, MTT, 72 h) [µM] | further results
5 | Cc1ccc(C(C)C)cc1O [Carvacrol, carvacrol] |  |  |  |  |  |  | 50 to 650 µM | showed a significant anti-viability effect | did not negatively affect normal human keratinocyte cells |  |  | IC50 (A549 line; [20]): ~670 µM; IC50 (A549 line; A549): 100 µg/mL; IC50 ([2]; Homo sapiens, 72 h): 50 to 60 µM; selectivity index ([2]; SI = IC50 for HaCaT / IC50 for respective melanoma cell line, MTT): above 10; IC50 [3]: 120 ± 15 µM; IC50 ([4]; SK-MEL-28, 72 h): 60 ± 10 µM; concentration up to which HaCaT viability was not significantly affected ([5]; HaCaT, MTT, 72 h): ≤ 650 µM; IC50 ([5]; HaCaT, 72 h): > 650 µM; IC50 [6]: 50 µM; IC50 ([7]; A-375, 72 h): 60 µM; IC50 [8]: 60 ± 10 µM
6 | CC(C)=CCC/C(C)=C/C=O [Citral, citral] | 80 to 130 | 100 ± 10 | 80 | 130 ± 10 | 90 ± 10 |  | above 0.2 mM | showed a significant anti-viability effect | at high concentrations, it had a negative effect on normal keratinocyte cells | 290 ± 10 |  | IC50 ([9]; HT29, authors' conversion, read-out: IC50): ~143 µM; IC50 ([9]; HT29): 21.77 ± 0.23 µg/mL; IC50 ([10]; MDA MB-231, authors' conversion, read-out: IC50): ~135 µM; IC50 ([10]; MDA MB-231): 20.5 ± 1.41 µg/mL; IC50 [11, 20]: ~11 µM; IC50 ([11]; A549): 1.73 ± 0.37 µg/mL; IC50 ([12]; 4T1, authors' conversion, read-out: IC50): ~140 µM; IC50 ([12]; 4T1): 21.4 ± 2.82 µg/mL; IC50 ([13]; SW620, authors' conversion, read-out: IC50): ~148 µM; IC50 ([13]; SW620): 22.50 ± 2.50 µg/mL; IC50 ([14]; H1299, authors' conversion, read-out: IC50): ~26 µM; IC50 ([14]; H1299): 4.01 ± 0.30 µg/mL; inhibition of HaCaT proliferation ([5]; 0.3 mM, MTT): up to 28%; inhibition of HaCaT proliferation ([5]; highest concentration of 0.4 mM, MTT): approximately 10%
7 | C=CC(=C)CCC=C(C)C [Myrcene, myrcene] |  |  |  |  |  | could not be determined |  |  |  |  | 3000 | IC50 [17]: 70 to 90 µM; concentration up to which no significant inhibition of melanoma line growth ([2]; MTT, 72 h): up to 5 mM; cytotoxic activity (in words) [18]: no cytotoxic activity
8 | Cc1ccc(C(C)C)c(O)c1 [Thymol, thymol] | 460 to 530 | 510 ± 30 | 530 ± 50 | 480 ± 40 | 460 ± 50 |  | above 0.03 mM | showed a significant anti-viability effect | at high concentrations, it affects the viability of normal cell lines without cytotoxicity | > 1300 |  | concentration from which cytotoxicity was statistically significant ([1]; SK-MEL28 line): ≥ 30 µM; IC50 ([19]; authors' conversion, read-out: IC50): 400 µM; IC50 [19]: 60.09 µg/mL
